{
  "source": "patent US6331565A",
  "about": "“Dicaffeoylquinic acid for treating hepatitis B and the diseases associated with retrovirus, and the new caffeoylquinic acid derivatives” (Institute of Radiation Medicine Academy of Military Medical …, priority 1996, dated 2001)",
  "key": {"[1]": {"system": "lymphocyte proliferation induced by Con A", "settings": "mice infected with MuLV", "description": "mice. Five-wk-old female C57BL/6 mice were used throughout the experiments. All mice were housed in sterile cages in a room supplied with filtrated air. They were given pelleted food and chlorinated water ad libitum.\nInfection with LP-BM5 MuLV. Cell-free supernatants of LP-BM5 MULV were prepared by cocultivating G6 SC-1 clones with normal SC-1 cells for 5 days. Mice were inoculated intraperitoneally with 150 μl of stock solution containing 10^3,4×C plaque-forming units and 10^2,3 Mink-cell focks-forming units per […].\nThen, the spleens were collected. Cell suspensions were prepared by repeated passage of whole spleen through a pipette, the capsule and debris were allowed to settle, and the supernatants containing cells were collected and washed twice in PBS. […] Incubation continued for 16 hr, then cells were collected on filter that was determined by a scintillation counter."}, "Hep G2 cell lines": {"system": "Hep G2 cell lines", "assay": "Cytotoxicity in Hep G2 cell lines", "format": "cell-based", "settings": "1.0 μg.ml^-1", "description": "(§1) The viability of cells was determined by MTT."}, "[2]": {"assay": "Tolerance and general health in ducks", "settings": "duck, in vivo; preliminary results; read-out: maximal tolerance dose in duck"}, "HBV DNA polymerase": {"target": "T1, HBV DNA polymerase (Hepatitis B virus genotype D subtype ayw, UniProt P03156)", "T1 construct": "HBV DNA polymerase in viral particles; host or cells: viral particles", "T1 sequence (P03156 whole entry)": "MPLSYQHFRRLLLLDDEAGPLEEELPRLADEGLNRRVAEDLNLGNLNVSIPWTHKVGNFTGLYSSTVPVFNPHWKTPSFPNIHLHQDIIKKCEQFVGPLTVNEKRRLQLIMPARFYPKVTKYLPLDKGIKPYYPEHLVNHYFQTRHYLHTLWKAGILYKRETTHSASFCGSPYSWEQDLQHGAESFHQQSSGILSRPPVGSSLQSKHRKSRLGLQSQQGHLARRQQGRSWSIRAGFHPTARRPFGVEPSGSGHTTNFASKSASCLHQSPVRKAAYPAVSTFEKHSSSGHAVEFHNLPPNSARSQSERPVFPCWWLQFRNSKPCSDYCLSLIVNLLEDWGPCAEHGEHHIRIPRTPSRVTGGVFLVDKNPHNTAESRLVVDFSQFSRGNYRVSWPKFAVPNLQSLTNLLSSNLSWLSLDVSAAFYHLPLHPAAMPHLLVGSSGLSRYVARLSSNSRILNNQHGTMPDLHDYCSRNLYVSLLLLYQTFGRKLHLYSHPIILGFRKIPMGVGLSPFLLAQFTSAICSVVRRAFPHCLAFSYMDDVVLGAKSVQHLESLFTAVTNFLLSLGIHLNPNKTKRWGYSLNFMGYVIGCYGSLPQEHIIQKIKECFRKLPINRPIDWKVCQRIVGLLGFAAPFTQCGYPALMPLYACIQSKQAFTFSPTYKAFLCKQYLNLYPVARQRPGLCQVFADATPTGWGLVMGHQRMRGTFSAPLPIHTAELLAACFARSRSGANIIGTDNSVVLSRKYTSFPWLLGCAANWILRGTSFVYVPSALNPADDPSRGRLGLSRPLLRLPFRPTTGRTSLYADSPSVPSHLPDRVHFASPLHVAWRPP", "assay": "HBV DNA polymerase assay", "format": "biochemical", "description": "Assay was performed as described by Hantz (Antiviral Res 4(1984) 187-199) with minor modification. The Reaction mixture consisted of HBV DNA polymerase in viral particles in 200 mmol.l^-1 of Tris-HCl pH 7.6, 200 mmol.l^-1 of NH4 Cl. 50 mmol.l^-1 of MgCl2, 10 mmol.l^-1 of 2-mercaptoethanol, 2% Nonidet P-40 and 300 μmol.l^-1 concentrations of deoxynucleotide triphosphates except for [^3 H]dTTP, which was included in the assay at 20 μci.ml^-1. […] The mixtures were incubated at 37° C. for 4 h prior to spotting on Whatman No.3 filter paper which was washed 4 times with cold 5% trichloroacitic acid, then with ethanol. The HBV DNA polymerase activity as measure of the incorperation of the radionucleotide into the viral DNA was counted in a Recbeta (LKB)scintilation counter."}, "HIV-1 RT": {"system": "HIV-1 RT", "description": "MT4 cells in culture were counted by trypan blue exclusion method. The MT4 cells suspended in a small volume of RPMI-1640 medium without FCS and infected with HIV-1 at 200 TCID50 viruses per 10^6 cells. The mixture of MT4 cells and virus was subsequently incubated at 37° C. in a humidified atmosphere of 5% CO2 for 1 hr to allow virus to adsorbed to cells. Unabsorbed viruses were then removed by washing one with […] of the fresh medium and centrifuged at 1000 rpm for ten minutes. The cells were suspended in the medium and distributed into 12-well microculture plates (10^6 cells/3 ml/well). […] After 4-day incubation at 37° C. in a humidified atmosphere containing 5% CO2 the medium was aspirated and the fresh medium containing the same concentration of drug was added.\nThe presence of HIV-1 RT in the supernatants of infected, drug-treated and infected, no drug treated MT4 cell culture was assayed. Cell culture fluids was clarified at 1000 rpm for 10 minutes to remove cellular debris. The supernatant samples (20 μl) in duplicate transferred to 5 ml plastic Falcon tubes, 10 μl of virus solubilization buffer [0.5% Triton X-100 in 0.8 M NaCl, 0.5 mM phenylmethysulfonyfluoride, 20% (v/v) glycerol and 50 mM Tris-HCl, pH 7.8] were then added to solubilize the viral particles in the supernatant samples and to release RT located in the viral core. 170 μl of reaction mixture (cocktail I) [52 mM Tris-HCl (pH 7.8), 10 mM MgCl2, 2 mM dithiothreitol, 5 μg of poly(rA)-oligo(dT)per ml. 83 μg of dATP per ml, and 3 μCi of [^3 H]TTP per ml] was then added and incubated at 37° C. for 2 hr. The incorporation of [^3 H]TTP into DNA with poly(rA)-olgio(dT) template primer by viral RT was assessed by trichloroacetic (TCA) precipitation and filtered over a […] diameter glass fiber filter. […] of cold 10% TCA was added to precipitate DNA. The precipitate DNA was then collected on the filters in a Millipore sampling manifold, and was washed with additional 5 volumes of 5% TCA and 2 volumes of 70% ethanol. Radioactivity of the DNA on the filters was determined by a scintillation counter."}, "HBV DNA replication": {"system": "HBV DNA replication", "settings": "FIG. 1; 15.625-250 ug/ml", "experimental": "Hep G2 2.2.15 cell lines were maintained in DMEM supplemented with 10% fetal calf serum (FCS) and 100 units.ml^-1 of penicillin and streptomycin, 380 μg.ml^-1 of G418 in a humidified atmosphere containing 5% CO2 at 37° C. The cultures were passenged by trypsinization every 4 days. For bioassays cells were plated in 24-well plates at a density of 1.0×10^5 cells/well. Two-day-old cultures were treated with various concentrations of drug in DMEM containing 10 FCS. The drug was left in the medium for 4 days, and then the medium was aspirated and the fresh medium containing the same concentration of drug was added. At the end of three 4-day periods, the cells were harvested. The aliquot of the culture medium was used for the estimation of the HBV surface antigen (HBsAg) and HBV e antigen (HBeAg).\nDNA extraction in 2.2.15 cells: Total DNA was isolated from 2.2.15 cells, cells was washed in PBS and lysed in a solution containing 50 mmol.l^-1 Tris-HCl (pH 7.5). 10 mmol.l^-1 EDTA. 1% SDS and 50 μg.ml^-1 of proteinase K (Sigma). After incubation at 37° C. for 4 h, total DNA was extracted in phenol-chloroform-isoamyl alcohol (25:24:1) followed by two extractions with chloroform-isoamyl alcohol. The DNA was precipitated with 1/10 vol NaOAc and 2.5 vol ethanol overnight at -70° C. […]"}, "2.2.15 cells": {"system": "2.2.15 cells", "assay": "Cytotoxicity in 2.2.15 cells (MTT)", "format": "cell-based", "description": "The cultures were passenged by trypsinization every 4 days.\nas §1"}},
  "note": "Entries after “also recorded” stand apart in the source; their conditions may differ. Like-named read-outs stand apart in the source and are kept apart here.",
  "data": [
    {"smiles": "O=C(/C=C/c1ccc(O)c(O)c1)OC1CC(OC(=O)/C=C/c2ccc(O)c(O)c2)(C(=O)O)CC(O)C1O", "note": "(stereo not shown) [Compound A, 1,5-di-O-caffeoylquinic acid]", "values": [
      {"measurement": "proliferation of lymphocyte induced by Con A", "setting": "[1]", "value": "enhance the proliferation of lymphocyte induced by Con A in a degree near to that of AZT; also recorded: enhance the proliferation of lymphocyte of mice infected with MuLV"},
      {"measurement": "toxicity to Hep G2 cell lines", "setting": "Hep G2 cell lines", "value": "did not show toxicity"},
      {"measurement": "MTD", "setting": "[2]", "value": "> 4000", "unit": "mg/kg"},
      {"measurement": "IC50", "setting": "HBV DNA polymerase", "value": 59.3, "unit": "µM"},
      {"measurement": "inhibitory effect on HBV DNAp", "setting": "HBV DNA polymerase", "value": "significant dose-dependent inhibitory effect"},
      {"measurement": "cpm", "setting": "HBV DNA polymerase; 1 μg/ml", "value": "9856 ± 201", "unit": "cpm"},
      {"measurement": "cpm", "setting": "HBV DNA polymerase; 10 μg/ml", "value": "7990 ± 79", "unit": "cpm"},
      {"measurement": "cpm", "setting": "HBV DNA polymerase; 100 μg/ml", "value": "3522 ± 51", "unit": "cpm"},
      {"measurement": "cpm", "setting": "HBV DNA polymerase; 1000 μg/ml", "value": "1983 ± 159", "unit": "cpm"},
      {"measurement": "inhibition at 1 µg/mL", "setting": "HBV DNA polymerase; read-out: Inhibitory rate (%)", "value": "11.2 ± 1.9", "unit": "%"},
      {"measurement": "inhibition at 10 µg/mL", "setting": "HBV DNA polymerase; read-out: Inhibitory rate (%)", "value": "30.3 ± 0.8", "unit": "%"},
      {"measurement": "inhibition at 100 µg/mL", "setting": "HBV DNA polymerase; read-out: Inhibitory rate (%)", "value": "68.4 ± 0.5", "unit": "%"},
      {"measurement": "inhibition at 1000 µg/mL", "setting": "HBV DNA polymerase; read-out: Inhibitory rate (%)", "value": "82.3 ± 1.5", "unit": "%"},
      {"measurement": "IC50, RT in MT4 cells infected with HIV", "setting": "HIV-1 RT", "value": 17.1, "unit": "µg/mL"},
      {"measurement": "Inhibitory rate(%)", "setting": "HIV-1 RT; 1 μg/ml", "value": "22.8 ± 1.9", "unit": "%"},
      {"measurement": "cpm", "setting": "HIV-1 RT; 1 μg/ml", "value": "6051 ± 91", "unit": "cpm"},
      {"measurement": "Inhibitory rate(%)", "setting": "HIV-1 RT; 10 μg/ml", "value": "45.4 ± 0.8", "unit": "%"},
      {"measurement": "cpm", "setting": "HIV-1 RT; 10 μg/ml", "value": "4283 ± 89", "unit": "cpm"},
      {"measurement": "Inhibitory rate(%)", "setting": "HIV-1 RT; 100 μg/ml", "value": "68.7 ± 0.5", "unit": "%"},
      {"measurement": "cpm", "setting": "HIV-1 RT; 100 μg/ml", "value": "2456 ± 54", "unit": "cpm"},
      {"measurement": "Inhibitory rate(%)", "setting": "HIV-1 RT; 1000 μg/ml", "value": "80.5 ± 1.5", "unit": "%"},
      {"measurement": "cpm", "setting": "HIV-1 RT; 1000 μg/ml", "value": "1528 ± 89", "unit": "cpm"},
      {"measurement": "inhibition of HBV DNA replication", "setting": "HBV DNA replication", "value": "inhibit HBV DNA replication in a dose dependent manner"},
      {"measurement": "toxicity to 2.2.15 cells", "setting": "2.2.15 cells; 1.0 μg.ml^-1", "value": "did not show toxicity"},
      {"measurement": "harmful effects on 2.2.15 cells", "setting": "2.2.15 cells; 500 μg/ml", "value": "no obvious harmful effects"}
    ]}
  ]
}
